The text below walks through data of patent US4540700A, “Treatment of diabetic complications with certain spiro-imidazolidine-diones” (Alcon Laboratories, Inc., priority 1984, dated 1985).

Each structure is given as a SMILES string.

Experiment [1] relates to cataractogenesis in diabetic rats. The experiment in a line: cataractous changes in streptozotocin diabetic rats. The class given is in vivo, male albino rats. To be noted: 15 weeks. As to the method:
(§1) The purpose is to evaluate the efficacy of the racemic 2-fluoro compound (L), an aldose reductase inhibitor, for inhibiting cataractogenesis and nerve conduction deficit in diabetic rats.
(§2) Diabetes was induced in male albino rats by the intravenous injection of 50 mg/kg streptozotocin. The diabetic state was verified by measuring the blood glucose level in each animal before and after injection. […] A fourth group consisted of non-diabetic and otherwise normal rats which remained untreated. Treatments were given once daily by oral […], and continued through the day prior to sacrifice of the animal.
(§3) Each animal was weighed on a weekly basis. Both lenses of each animal were examined by ophthalmoscope periodically and any cataractous changes were graded and noted. At the end of 15 weeks, each animal was anesthetized using pentobarbital and the nerve conduction velocities of the sciatic nerve were measured. After an animal was sacrificed, the sciatic nerve and other tissues and organs were taken, weighed, and frozen for future biochemical analyses.
Cataractous changes were graded on a scale of 0 to 4; 0 denoting a normal looking lens with no changes and 4 denoting opacification involving the whole lens.

For experiment [2], the system named is nerve conduction velocities of the sciatic nerve. Put plainly: Nerve conduction study in diabetic rats. To be noted: for nerve conduction velocity as a percent of normal, first inflection / nerve conduction velocity as a percent of normal, first peak / nerve conduction velocity as a percent of normal, second inflection / nerve conduction velocity as a percent of normal, second peak: 15 weeks. The class given is in vivo, male albino rats. As to the method: as §1, §2, §3

The next experiment addresses Human Aldose Reductase (Homo sapiens, UniProt P15121). The experiment in a line: Human Aldose Reductase Inhibition. It is filed as biochemical. As to conditions: for activity against human aldose reductase as compared to rat aldose reductase: human vs rat; for more active against human aldose reductase than the Sarges resolved compound: relative to Sarges resolved.

Broadly, the IC50 is the concentration that gives 50% inhibition. Lower therefore signals greater potency in that assay. Usually inhibition stands for the share of the control response that was lost under treatment.

As to `O=C1NC(=O)C2(CCOc3ccc(F)cc32)N1` (racemic) [Sarges Racemic, dl-spiro-(6-fluorochroman-4,4'-imidazolidine)-2',5'-dione, reference compound], the “prevention of lens opacification in diabetic rats” value in experiment [1] (16 mg/kg once daily oral, 30 lenses) was “all appeared normal”. Besides, in experiment [2] (16 mg/kg once daily oral), the “nerve conduction velocity as a percent of normal, first inflection” value is 88.6%; the “nerve conduction velocity as a percent of normal, first peak” value stood at 83.9%; the “nerve conduction velocity as a percent of normal, second inflection” value is 82.4%; the “nerve conduction velocity as a percent of normal, second peak” value was 79.1%.
`O=C1NC(=O)C2(N1)c1cc(F)ccc1-c1ccc(F)cc12` [M, Spiro-[2,7-difluorofluoren-9,4'-imidazolidine]-2',5'-dione]: the “In vitro Aldose Reductase Inhibition” value on Human Aldose Reductase (10^-5, human) was found to be 81; at Human Aldose Reductase (10^-6, human), 71; at Human Aldose Reductase (10^-7, human), 64; on Human Aldose Reductase (10^-8, human), 35. Moreover, half-maximal inhibition on Human Aldose Reductase (human) (IC50) was put at 52 nM. Besides, the “activity against human aldose reductase as compared to rat aldose reductase” value on Human Aldose Reductase was “as active or more active”. Further, the “more active against human aldose reductase than the Sarges resolved compound” value on Human Aldose Reductase was 12 X.
`O=C1NC(=O)C2(N1)c1ccccc1-c1ccc(F)cc12` (racemic) [Compound L, dl-Spiro(2-fluorofluoren-9,4'-imidazolidine)-2',5'-dione]: on Human Aldose Reductase (10^-4, human, read-out: In vitro Aldose Reductase Inhibition), the inhibition at 100 µM amounted to 100%. The inhibition at 10 µM on Human Aldose Reductase (10^-5, human, read-out: In vitro Aldose Reductase Inhibition) came to 88%. The inhibition at 1 µM on Human Aldose Reductase (10^-6, human, read-out: In vitro Aldose Reductase Inhibition) is 81%. For the same compound, the inhibition at 0.1 µM at Human Aldose Reductase (10^-7, human, read-out: In vitro Aldose Reductase Inhibition) was found to be 53%. Also, the inhibition at 0.01 µM at Human Aldose Reductase (10^-8, human, read-out: In vitro Aldose Reductase Inhibition) came out at 18%. The same compound gave a concentration for half-maximal inhibition (IC50) at Human Aldose Reductase (human) of 91 nM. Also, on Human Aldose Reductase, the “activity against human aldose reductase as compared to rat aldose reductase” value is “as active or more active” and the “more active against human aldose reductase than the Sarges resolved compound” value turned out to be 7 X. Also, in experiment [1] (8 mg/kg once daily oral), the “prevention of lens opacification in diabetic rats” value is recorded as “effective in preventing opacification of the lens”. In experiment [2] (8 mg/kg once daily oral), the “nerve conduction velocity as a percent of normal, first inflection” value worked out at 93.3%; the “nerve conduction velocity as a percent of normal, first peak” value is recorded as 88.2%; the “nerve conduction velocity as a percent of normal, second inflection” value turned out to be 87.4%; the “nerve conduction velocity as a percent of normal, second peak” value stood at 85.0%. In addition, the “statistical significance of improvement in nerve conduction” value in experiment [2] (8 mg/kg, by comparison to the untreated diabetic rats) is recorded as “significant”.
